Data set [1] concerns the target Bcr/Abl fusion protein (Homo sapiens, UniProt P00519). The class given is protein assay.
Description: Inhibition of wild type Bcr-Abl
The target of data set [2] is Tyrosine-protein kinase ABL1 (Homo sapiens, UniProt P00519).
Description: Inhibition of wild type Abl
Data set [3] has as its target Dual specificity tyrosine-phosphorylation-regulated kinase 1A (Homo sapiens, UniProt Q13627). The experiment in a line: Inhibition of DYRK1A.
The target of data set [4] is Cyclin-dependent kinase 5 (Homo sapiens, UniProt Q00535). Put plainly: Inhibition of CDK5.
The nature of data set [5]: Inhibition of GSK3.
Data set [6] addresses Mast/stem cell growth factor receptor Kit (Homo sapiens, UniProt P10721).
In data set [7] the target is Vascular endothelial growth factor receptor 2 (Homo sapiens, UniProt P35968).
The target of data set [8] is T1, Dihydrofolate reductase (Homo sapiens, UniProt P00374).
T1 sequence (P00374 whole entry): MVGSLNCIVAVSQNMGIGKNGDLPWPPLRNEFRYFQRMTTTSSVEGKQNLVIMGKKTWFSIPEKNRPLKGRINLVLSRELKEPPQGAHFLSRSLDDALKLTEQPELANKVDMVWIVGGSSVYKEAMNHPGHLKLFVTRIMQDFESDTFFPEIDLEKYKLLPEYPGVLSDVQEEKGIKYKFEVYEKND
Put plainly: Inhibition of DHFR.

The nature of data set [9]: Inhibition of HDAC.
Data set [10] addresses Mitogen-activated protein kinase 10 (Homo sapiens, UniProt P53779). Put plainly: Inhibition of JNK3.
A short description of data set [11]: Inhibition of p38.
For data set [12], the target named is Glycogen synthase kinase-3 beta (Homo sapiens, UniProt P49841). The experiment in a line: Inhibition of GSK3-beta.
For data set [13], the target named is Casein kinase I isoform alpha (Homo sapiens, UniProt P48729). Put plainly: Inhibition of CK1.
Data set [14] concerns the target Cyclin-dependent kinase 1 (Homo sapiens, UniProt P06493). Put plainly: Inhibition of CDK1.
Data set [15] can be described thus: Inhibition of PDGFR.
Data set [16] has as its target RAC-alpha serine/threonine-protein kinase (Homo sapiens, UniProt P31749).
The target in data set [17] is Epidermal growth factor receptor (Homo sapiens, UniProt P00533).
Chain of Epidermal growth factor receptor (P00533 whole entry): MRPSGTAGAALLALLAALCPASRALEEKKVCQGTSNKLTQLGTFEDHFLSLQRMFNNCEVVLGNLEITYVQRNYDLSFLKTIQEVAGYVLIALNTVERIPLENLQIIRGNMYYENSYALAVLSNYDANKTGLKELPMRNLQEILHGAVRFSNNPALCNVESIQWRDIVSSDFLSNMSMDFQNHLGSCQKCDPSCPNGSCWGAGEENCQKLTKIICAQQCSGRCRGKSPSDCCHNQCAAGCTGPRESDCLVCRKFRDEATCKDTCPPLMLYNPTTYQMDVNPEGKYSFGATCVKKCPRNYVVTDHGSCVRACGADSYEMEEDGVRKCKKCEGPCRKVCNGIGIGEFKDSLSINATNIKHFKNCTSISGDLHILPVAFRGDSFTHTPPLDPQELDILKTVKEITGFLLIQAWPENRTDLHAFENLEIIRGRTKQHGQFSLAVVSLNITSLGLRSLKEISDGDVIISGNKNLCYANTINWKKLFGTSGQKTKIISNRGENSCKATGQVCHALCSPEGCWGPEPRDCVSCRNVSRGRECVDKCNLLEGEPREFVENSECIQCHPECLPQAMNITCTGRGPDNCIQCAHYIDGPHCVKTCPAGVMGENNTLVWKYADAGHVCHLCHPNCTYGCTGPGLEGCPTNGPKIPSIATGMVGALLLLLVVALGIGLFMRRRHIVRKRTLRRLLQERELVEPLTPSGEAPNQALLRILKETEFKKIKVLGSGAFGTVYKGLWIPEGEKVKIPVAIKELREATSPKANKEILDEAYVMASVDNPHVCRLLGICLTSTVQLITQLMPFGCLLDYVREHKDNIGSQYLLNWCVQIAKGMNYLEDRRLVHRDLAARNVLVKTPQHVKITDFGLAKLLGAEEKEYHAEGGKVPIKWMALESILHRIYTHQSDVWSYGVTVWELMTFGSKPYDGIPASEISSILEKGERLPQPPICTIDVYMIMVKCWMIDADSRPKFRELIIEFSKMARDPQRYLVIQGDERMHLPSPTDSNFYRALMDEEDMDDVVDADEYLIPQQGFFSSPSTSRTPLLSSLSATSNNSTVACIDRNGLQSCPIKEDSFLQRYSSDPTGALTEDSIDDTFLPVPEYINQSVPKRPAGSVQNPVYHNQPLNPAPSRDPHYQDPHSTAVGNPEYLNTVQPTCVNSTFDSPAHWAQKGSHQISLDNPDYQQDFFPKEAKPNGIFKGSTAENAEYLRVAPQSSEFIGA
The target of data set [18] is Receptor tyrosine-protein kinase erbB-2 (Homo sapiens, UniProt P04626).
Data set [19] deals with Insulin-like growth factor 1 receptor (Homo sapiens, UniProt P08069).
Chain of Insulin-like growth factor 1 receptor (P08069 31-736 limits assumed): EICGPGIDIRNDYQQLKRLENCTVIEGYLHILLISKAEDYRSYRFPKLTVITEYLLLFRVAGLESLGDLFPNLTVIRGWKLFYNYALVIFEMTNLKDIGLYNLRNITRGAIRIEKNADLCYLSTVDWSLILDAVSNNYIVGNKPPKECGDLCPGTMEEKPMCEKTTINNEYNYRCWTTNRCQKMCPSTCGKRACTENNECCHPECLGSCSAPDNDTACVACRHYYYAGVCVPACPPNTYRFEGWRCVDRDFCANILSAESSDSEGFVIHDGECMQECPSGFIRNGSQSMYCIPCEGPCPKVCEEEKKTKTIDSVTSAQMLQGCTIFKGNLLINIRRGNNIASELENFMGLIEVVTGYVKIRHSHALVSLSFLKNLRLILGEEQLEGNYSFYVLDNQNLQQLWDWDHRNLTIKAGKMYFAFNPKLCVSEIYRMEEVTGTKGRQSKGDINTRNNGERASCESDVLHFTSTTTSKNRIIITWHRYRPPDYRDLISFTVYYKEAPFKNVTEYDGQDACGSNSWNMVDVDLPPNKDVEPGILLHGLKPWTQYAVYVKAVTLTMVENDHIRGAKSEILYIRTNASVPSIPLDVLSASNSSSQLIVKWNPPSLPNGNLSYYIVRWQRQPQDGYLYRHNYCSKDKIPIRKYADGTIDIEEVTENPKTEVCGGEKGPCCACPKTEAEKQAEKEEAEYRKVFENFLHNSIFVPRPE
Chain of Insulin-like growth factor 1 receptor (P08069 741-1367 limits assumed): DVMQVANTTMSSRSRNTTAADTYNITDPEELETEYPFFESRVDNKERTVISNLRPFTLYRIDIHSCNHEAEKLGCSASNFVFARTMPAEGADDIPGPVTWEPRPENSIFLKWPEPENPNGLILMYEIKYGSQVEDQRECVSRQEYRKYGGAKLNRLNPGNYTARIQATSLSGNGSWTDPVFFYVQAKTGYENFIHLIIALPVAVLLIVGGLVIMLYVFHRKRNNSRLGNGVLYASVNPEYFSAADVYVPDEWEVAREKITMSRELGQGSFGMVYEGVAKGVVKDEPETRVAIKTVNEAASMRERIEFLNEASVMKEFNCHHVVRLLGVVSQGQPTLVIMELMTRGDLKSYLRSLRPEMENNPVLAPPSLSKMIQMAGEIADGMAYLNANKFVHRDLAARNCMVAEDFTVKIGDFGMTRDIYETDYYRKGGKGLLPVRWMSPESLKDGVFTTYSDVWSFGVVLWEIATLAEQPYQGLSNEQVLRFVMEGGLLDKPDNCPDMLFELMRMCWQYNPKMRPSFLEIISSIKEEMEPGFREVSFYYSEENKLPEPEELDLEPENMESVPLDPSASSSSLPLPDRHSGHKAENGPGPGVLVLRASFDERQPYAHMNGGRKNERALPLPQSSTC
Data set [20] in a line: Oral bioavailability in mouse. Format: ADME, organism-based. The settings on record: in vivo.
The target of data set [21] is Voltage-gated inwardly rectifying potassium channel KCNH2 (Homo sapiens, UniProt Q12809). Put plainly: Inhibition of ERG.
The target in data set [22] is Proto-oncogene tyrosine-protein kinase Src (Homo sapiens, UniProt P12931).
Data set [23] has as its target Nitric oxide synthase, inducible (Homo sapiens, UniProt P35228). The experiment in a line: Inhibition of iNOS.

Our source for the IC50 and bioavailability values is ChEMBL document CHEMBL1155389, “Selectively nonselective kinase inhibition: striking the right balance” (J Med Chem, 2010).

Chain of Bcr/Abl fusion protein (P00519 whole entry, the tested form may be a part): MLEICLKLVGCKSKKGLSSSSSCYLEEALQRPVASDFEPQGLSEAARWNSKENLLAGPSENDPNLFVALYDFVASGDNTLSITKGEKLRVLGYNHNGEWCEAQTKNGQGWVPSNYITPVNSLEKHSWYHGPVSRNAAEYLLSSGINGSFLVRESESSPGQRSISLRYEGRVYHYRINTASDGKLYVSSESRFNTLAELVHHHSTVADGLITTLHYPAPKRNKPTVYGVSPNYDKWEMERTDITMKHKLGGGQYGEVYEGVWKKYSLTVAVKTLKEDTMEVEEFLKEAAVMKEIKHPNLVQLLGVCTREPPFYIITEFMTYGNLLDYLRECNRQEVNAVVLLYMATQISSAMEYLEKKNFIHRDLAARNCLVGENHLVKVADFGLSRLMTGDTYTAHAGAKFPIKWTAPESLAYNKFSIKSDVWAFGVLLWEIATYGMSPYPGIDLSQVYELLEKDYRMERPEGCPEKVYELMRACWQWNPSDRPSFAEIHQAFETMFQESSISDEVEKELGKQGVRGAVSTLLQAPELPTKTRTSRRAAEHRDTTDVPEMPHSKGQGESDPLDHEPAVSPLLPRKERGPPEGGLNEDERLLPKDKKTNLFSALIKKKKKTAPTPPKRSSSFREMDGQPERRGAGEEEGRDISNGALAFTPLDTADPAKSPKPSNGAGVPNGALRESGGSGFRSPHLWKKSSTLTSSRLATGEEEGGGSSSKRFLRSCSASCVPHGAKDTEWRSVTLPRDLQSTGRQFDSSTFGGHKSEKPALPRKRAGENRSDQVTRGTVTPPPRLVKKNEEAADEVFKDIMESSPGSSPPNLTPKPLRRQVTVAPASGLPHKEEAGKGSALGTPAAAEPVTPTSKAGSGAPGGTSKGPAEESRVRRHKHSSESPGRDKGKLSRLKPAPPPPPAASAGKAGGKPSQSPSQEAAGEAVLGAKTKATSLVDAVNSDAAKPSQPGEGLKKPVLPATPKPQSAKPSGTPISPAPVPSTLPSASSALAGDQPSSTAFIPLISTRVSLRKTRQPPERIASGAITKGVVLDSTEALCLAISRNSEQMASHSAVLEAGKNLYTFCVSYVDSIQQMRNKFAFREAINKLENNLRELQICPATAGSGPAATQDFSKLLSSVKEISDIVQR
Chain of Bcr/Abl fusion protein (P11274 whole entry, further chain, the tested form may be a part): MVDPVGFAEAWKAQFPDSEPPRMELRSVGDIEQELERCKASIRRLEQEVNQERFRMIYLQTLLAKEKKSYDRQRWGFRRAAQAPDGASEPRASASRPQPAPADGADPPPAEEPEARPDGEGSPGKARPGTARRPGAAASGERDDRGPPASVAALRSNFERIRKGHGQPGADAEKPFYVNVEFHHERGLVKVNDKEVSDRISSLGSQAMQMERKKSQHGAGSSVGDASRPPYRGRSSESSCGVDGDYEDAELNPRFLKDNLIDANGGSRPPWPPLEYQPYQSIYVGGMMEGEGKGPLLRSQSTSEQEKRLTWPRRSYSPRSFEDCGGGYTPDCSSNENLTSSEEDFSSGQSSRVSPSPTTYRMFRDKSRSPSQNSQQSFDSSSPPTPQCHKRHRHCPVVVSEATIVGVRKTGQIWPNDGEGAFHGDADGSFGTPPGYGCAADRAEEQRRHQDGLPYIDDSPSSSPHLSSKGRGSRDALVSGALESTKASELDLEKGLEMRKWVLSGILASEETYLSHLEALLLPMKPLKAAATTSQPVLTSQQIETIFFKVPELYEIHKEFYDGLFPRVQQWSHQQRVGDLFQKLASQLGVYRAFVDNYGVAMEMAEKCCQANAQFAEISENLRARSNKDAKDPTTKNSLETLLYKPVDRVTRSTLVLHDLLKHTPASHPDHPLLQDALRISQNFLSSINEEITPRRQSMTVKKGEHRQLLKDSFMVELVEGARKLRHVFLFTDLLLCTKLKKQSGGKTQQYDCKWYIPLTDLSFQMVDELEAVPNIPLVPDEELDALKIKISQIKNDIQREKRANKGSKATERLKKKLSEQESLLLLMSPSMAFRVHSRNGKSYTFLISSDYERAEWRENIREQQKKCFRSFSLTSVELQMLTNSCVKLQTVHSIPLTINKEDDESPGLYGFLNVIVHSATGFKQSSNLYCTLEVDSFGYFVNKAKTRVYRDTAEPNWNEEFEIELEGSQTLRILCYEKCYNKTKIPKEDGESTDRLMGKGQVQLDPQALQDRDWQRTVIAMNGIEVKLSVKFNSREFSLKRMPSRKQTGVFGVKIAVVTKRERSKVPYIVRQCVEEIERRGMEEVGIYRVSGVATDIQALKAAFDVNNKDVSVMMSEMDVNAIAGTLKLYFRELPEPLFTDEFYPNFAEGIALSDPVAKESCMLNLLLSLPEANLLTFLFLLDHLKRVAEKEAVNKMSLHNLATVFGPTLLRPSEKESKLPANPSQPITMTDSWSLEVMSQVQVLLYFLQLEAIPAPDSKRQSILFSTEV
Chain of Tyrosine-protein kinase ABL1 (P00519 whole entry): as the sequence (P00519 whole entry, the tested form may be a part) above

Take `Cc1cn(-c2cc(NC(=O)c3ccc(C)c(/C=C/N4CNc5c(NC6CC6)ncnc54)c3)cc(C(F)(F)F)c2)cn1`: the half-inhibitory concentration (IC50) in data set [1] was 0.008 µM; in [2], 0.025 µM.
Regarding `N#Cc1c(N)cc2[nH]nc(N)c2c1-c1ccccc1`, the IC50 in data set [3] was 0.41 µM; in [4], 11 µM; in [5], 15 µM.
On to `Cc1ccc(-c2ccnc(Nc3cc(NC(=O)c4ccc(CN5CCN(C)CC5)cc4)ccc3C)n2)cn1`, for which the IC50 in data set [1] is 11 µM; in data set [6], 0.043 µM.
Turning to `C/C(=C/c1coc2nc(N)nc(N)c12)c1cccc2ccccc12`, the IC50 amounted to 2 µM in data set [7] and 10 µM in [8].
In the case of `Cc1ccc(NC(=O)c2ccc(/C=C/C(=O)NO)cc2)cc1Nc1nc(-c2cccnc2)cs1`, the IC50 was found to be 0.08 µM in data set [9] and 2.7 µM in data set [1].
Take `c1ccc(-c2noc(CN3CCCCC3)c2-c2ccnc(NC3CCCCC3)n2)cc1`: the IC50 was found to be 0.026 µM in [10] and 0.002 µM in data set [11].
Regarding `CCC(CO)Nc1nc(Nc2cccc(-c3ccccn3)c2)c2ncn(C(C)C)c2n1` (stereo unspecified), the results for the IC50 in data set [12], in data set [13] and in data set [14] were 4.1 µM, 0.014 µM and 0.22 µM, respectively.
In data set [15], `Nc1ncnc2c1c(-c1cnc3[nH]ccc3c1)nn2C1CCCC1` registered an IC50 of 0.002 µM.
In the case of `Cn1nnnc1-c1cnc(-c2ccc(CN3CCC(n4c(=O)[nH]c5ccccc54)CC3)cc2)c(-c2ccccc2)c1`, in data set [16], the IC50 worked out at 0.273 µM.
With `COCCCN1CCC([C@H]2CC[C@H](n3nc(-c4ccc5nc(Cc6ccccc6Cl)[nH]c5c4)c4c(N)ncnc43)CC2)CC1`, the IC50 came to 0.058 µM in data set [17], 0.054 µM in data set [18] and 0.081 µM in data set [19].
With `COc1ccccc1Cc1nc2ccc(-c3nn([C@H]4CC[C@H](C5CCN(C)CC5)CC4)c4ncnc(N)c34)cc2[nH]1`, the half-inhibitory concentration (IC50) in [17] is 0.058 µM; in [19] it was 0.081 µM. The compound also gave a bioavailability in [20] of 12%.
In [21], `c1ccc(-c2cc3c(ccn4cnnc34)nc2-c2ccc(CN3CCC(c4nnc(-c5ccccn5)[nH]4)CC3)cc2)cc1` displayed an IC50 of over 10 µM.
`Cc1cc2c(Nc3ccc4nc(N)sc4c3)c(C#N)cnc2cc1OCCN1CCCCC1`: the figures for the IC50 in [22] and in data set [23] were 0.015 µM and 313 µM, respectively.
Take `C#Cc1cccc(Nc2ncnc3cc(OC)c(OCCCCCCC(=O)NO)cc23)c1` [CUDC-101]: in [9], inhibition was half-maximal at 0.0044 µM (IC50).
On to `Cc1ccc(NC(=O)c2ccc(CN3CCN(C)CC3)cc2)cc1Nc1nccc(-c2cccnc2)n1` [IMATINIB], for which the IC50 is over 0.1 µM in data set [9] and 0.039 µM in [15].
The compound `Cc1cn(-c2cc(NC(=O)c3ccc(C)c(Nc4nccc(-c5cccnc5)n4)c3)cc(C(F)(F)F)c2)cn1` [NILOTINIB] showed an IC50 in data set [15] of 0.025 µM.

The IC50 is the midpoint of a concentration-inhibition curve. A low value points to greater potency. A word on the bioavailability: it is the share of a dose that reaches the circulation, judged against a reference dose that is usually intravenous. A lower bioavailability goes with poor availability.
